Assay results: the supplement of paper PMC4862054

How the values were obtained:
Details in all cases: 72 h
BT-474 = system: BT-474
Summary of the method: (§1)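 Seeding of breast cancer cell lines (20 µl suspension) was done into 384-well plates pre-loaded with compound at 5 concentrations, 10-fold apart, covering a compound-specific 10,000-fold range. The plates were incubated for 72 h, read for CellTox Green fluorescence (485/520 nm), and then read for CellTiter-Glo luminescence after 10 min at room temperature. Every plate was normalised to 0.1 % DMSO and a positive kill control. Curve fitting gave the EC50, censored at the top concentration.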

BT-549 = system: BT-549
Summary of the method: as §1

CAL-120 = system: CAL-120
Summary of the method: as §1

CAL-51 = system: CAL-51
Summary of the method: as §1

DU-4475 = system: DU-4475
Summary of the method: as §1

HCC1143 = system: HCC1143
Summary of the method: as §1

Hs578T = system: Hs578T
Summary of the method: as §1

MCF-10A = system: MCF-10A
Summary of the method: as §1

MDA-MB-231 = system: MDA-MB-231
Summary of the method: as §1

MDA-MB-436 = system: MDA-MB-436
Summary of the method: as §1

MDA-MB-468 = system: MDA-MB-468
Summary of the method: as §1

MFM-223 = system: MFM-223
Summary of the method: as §1

SK-BR-3 = system: SK-BR-3
Summary of the method: as §1

Row | EC50, CellTiter-Glo (BT-474) | EC50, CellTiter-Glo (BT-549) | EC50, CellTiter-Glo (HCC1143) | EC50, CellTiter-Glo (MDA-MB-231) | EC50, CellTiter-Glo (MDA-MB-436) | EC50, CellTiter-Glo (MDA-MB-468) | EC50, CellTiter-Glo (SK-BR-3) | SMILES | EC50, CellTiter-Glo (CAL-120) | EC50, CellTiter-Glo (CAL-51) | EC50, CellTiter-Glo (DU-4475) | EC50, CellTiter-Glo (Hs578T) | EC50, CellTiter-Glo (MCF-10A) | EC50, CellTiter-Glo (MFM-223)
1 | 375 nM | 412 nM | 591 nM | 580 nM | 501 nM | 894 nM | 130 nM | Cc1c(CN2CCN(C(=O)[C@H](C)O)CC2)sc2c(N3CCOCC3)nc(-c3cnc(N)nc3)nc12 [GDC-0980] | 618 nM | 423 nM | 2480 nM | 445 nM | 486 nM | 362 nM
2 | 2920 nM | 1060 nM | 2250 nM | 2720 nM | 4130 nM | 1840 nM | 1660 nM | Nc1ccccc1NC(=O)c1ccc(CNc2nccc(-c3cccnc3)n2)cc1 [Mocetinostat] | 1600 nM | 1650 nM | 1570 nM | 3430 nM | 5300 nM | 4850 nM
3 | 58.6 nM | 81.8 nM | 21.5 nM | 65.4 nM | 50.9 nM | 50.7 nM | 21.4 nM | Cn1cc(CNCC2CCN(c3ncc(C(=O)NO)cn3)CC2)c2ccccc21 [Quisinostat] | 74.2 nM | 78.7 nM | 24 nM | 59.1 nM | 92.8 nM | 70.7 nM

Row | SMILES | EC50, CellTiter-Glo (BT-474) | EC50, CellTiter-Glo (BT-549) | EC50, CellTiter-Glo (HCC1143) | EC50, CellTiter-Glo (MDA-MB-231) | EC50, CellTiter-Glo (MDA-MB-436) | EC50, CellTiter-Glo (MDA-MB-468) | EC50, CellTiter-Glo (SK-BR-3) | EC50, CellTiter-Glo (CAL-120) | EC50, CellTiter-Glo (CAL-51) | EC50, CellTiter-Glo (DU-4475) | EC50, CellTiter-Glo (Hs578T) | EC50, CellTiter-Glo (MCF-10A) | EC50, CellTiter-Glo (MFM-223)
4 | C[C@]12O[C@H](C[C@]1(O)CO)n1c3ccccc3c3c4c(c5c6ccccc6n2c5c31)CNC4=O [Lestaurtinib] | 151 nM | 130 nM | 68.7 nM | 188 nM | 787 nM | 25.2 nM | 215 nM | 45.1 nM | > 1000 nM | 188 nM | 354 nM | 215 nM | 263 nM
